Holding throughout (assay): ABPP chemical proteomics (LC-MS/MS) in HEK293T cells
Common to all, as to assay type: cell-based

One test has as its target T1, RPL27 (Homo sapiens, UniProt P61353).
T1 construct: endogenous in cells; host or cells: HEK293T
The note with it: IMP-2586 labelling vs DMSO, 30 nM, 10 min, HEK293T (Table S4, Fig.5c). The method, boiled down: (§1)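 After inhibitor treatment, HEK293T cells were exposed to ABP 2 or ABP 4 at indicated concentrations (1 h, 37 °C). Tagged proteins were captured via click chemistry and NeutrAvidin enrichment, and relative abundance was measured by LC-MS/MS.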

The target of a further test is T2, RPL23A (Homo sapiens, UniProt P62750).
T2 construct: endogenous in cells; host or cells: HEK293T
The note with it: IMP-2586 labelling vs DMSO, 30 nM, 10 min, HEK293T (Table S4, Fig.5c). The method, boiled down: as §1

For another test, the target named is T3, ASAH1 (Homo sapiens, UniProt Q13510).
T3 construct: endogenous in cells; host or cells: HEK293T
T3 sequence (Q13510 22-395): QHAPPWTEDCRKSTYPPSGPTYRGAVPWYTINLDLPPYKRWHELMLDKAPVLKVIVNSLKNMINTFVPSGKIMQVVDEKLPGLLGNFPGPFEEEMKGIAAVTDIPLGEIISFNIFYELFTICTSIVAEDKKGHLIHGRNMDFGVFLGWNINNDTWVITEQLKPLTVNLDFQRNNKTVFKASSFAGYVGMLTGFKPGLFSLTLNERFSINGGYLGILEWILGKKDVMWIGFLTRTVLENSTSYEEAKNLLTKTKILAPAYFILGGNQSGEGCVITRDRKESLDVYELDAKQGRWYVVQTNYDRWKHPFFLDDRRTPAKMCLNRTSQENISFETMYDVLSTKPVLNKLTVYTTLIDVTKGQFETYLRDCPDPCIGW
As to conditions: IMP-2586 labelling vs DMSO, 30 nM, 10 min, HEK293T (Table S4, Fig.5c). The method, boiled down: as §1

In another test the test system is H2AFV;H2AFZ. As to conditions: IMP-2587 labelling vs DMSO, 30 nM, 10 min, HEK293T (Table S2, Fig.5a). The method, boiled down: as §1

The record followed here is PMC11078216, “Discovery of potent and selective activity-based probes (ABPs) for the deubiquitinating enzyme USP30” (RSC Chemical Biology, 2024).

`N#CN1CC[C@@H](NC(=O)c2cc(-c3ccccc3Oc3ccc(N=[N+]=[N-])cc3)n[nH]2)C1` [IMP-2586]: the entries for the “Difference (log2 fold change of enrichment)” value on RPL27, on RPL23A and on ASAH1 were -0.76, -0.57 and 1.08, respectively.

Regarding `C#Cc1cccc(-c2cc(NC(=O)CC3CCN(C#N)C3)on2)c1` (stereo not shown) [IMP-2587], the “Difference (log2 fold change of enrichment)” value in the test with H2AFV;H2AFZ is listed as 0.65.
